Results published in patent US20040209273A1, “Plant stress-regulated genes” (priority 2001, published 2004).

Assays:
[1] = system: tobacco leaf discs; assay: Ion leakage (solute conductance) from tobacco leaf discs floated on methyl viologen solutions; set-up: species or system Nicotiana tabacum
Experimental: Nicotiana tabacum cv. Petit Havana SR1 plants were grown in a controlled environment chamber (Weiss Technik, Lindenstruth, DE) under 100 μmol/m^2/s light intensity (photosynthetically active radiation), 16 hours light/8 hours dark regime, relative humidity of 70% and constant temperature of 24° C. The most expanded leaves (11-12 cm long×7-8 cm wide) from five week old plants were used for experiments with methyl viologen.
Leaf discs (1 cm in diameter) were punched with a cork-bore from the interveinal part of the leaf. Three leaf discs, each originating from different plants, were floated with the abaxial side up on 12 ml of methyl viologen solution in nanopure water or water solely in the case of control. Treatments were performed in controlled environment chambers, under the same conditions as for growth, except as otherwise indicated. Leaf discs for RNA extraction were drained on paper, rapidly frozen in liquid nitrogen and stored at −70° C. Ion leakage from the leaf discs was measured as conductivity of the solution using a conductivity meter (Consort, Turnhout, BE)
As a first step in studying adaptive responses to oxidative stress in tobacco, we wanted to establish an experimental system in which low doses of oxidant would induce adaptation to higher doses of the same compound. MV, a redox-active compound that enhances superoxide radical (O2 ? ) formation mainly in chloroplasts, was used as an oxidant. In order to determine MV concentrations suited for the induction of adaptation and for the subsequent oxidative stress treatment, sensitivity of tobacco to MV was first determined. Leaf discs were floated on solutions with different concentrations of MV and ion leakage was monitored by measuring the solute conductance. If not scavenged, superoxide generated by MV is converted through redox-reactions into other active oxygen species (AOS) such as hydroxyl radicals that interact with biological molecules and cause oxidative damage (Halliwell and Gutteridge, 1989). Peroxidation of membrane lipids results in loss of membrane integrity that is reflected by enhanced cellular ion leakage. […] These concentrations thus seemed most suitable for inducing adaptation to MV.
To test whether exposure to sublethal amounts of MV enhances tolerance to higher, normally toxic amounts of this compound, tobacco leaf discs were floated on solutions with less than 0.2 μM MV and subsequently transferred to solutions within the molar range of 0.2-2 μM. Increase in tolerance was assessed by measuring the solute conductance. Leaf discs pretreated with water were taken as nonadapted controls. […]

[2] = system: Gpx, SodCc and differential-display genes (mRNA); assay: Northern analysis of gene expression in leaf discs during MV pretreatment and treatment; set-up: species or system Nicotiana tabacum
Experimental: Total RNA was extracted from frozen leaf discs using TRIzol™ Reagent (Life Technologies, Paisley, UK) according to the manufacturer's instructions. RNA samples were treated prior to electrophoresis and resolved on 1% agarose gel as described by Shaul et al. (1996). The RNA was blotted on nylon membrane (Hybond-N, Amersham International plc., Buckinghamshire, UK or Qiabrane, Qiagen GmbH, Hilden, DE) by capillary blotting (Maniatis et al., 1982). RNA was fixed to the membrane by cross-linking at 150 mJ/cm^2. To check the quality of RNA prior to hybridization, membranes were incubated for 15 minutes in 5% acetic acid and stained for five minutes in 0.04% methylene blue in 0.5 M sodium acetate (pH 5.2), and rinsed with water. After the staining and quality check, membranes were destained in 0.1×SSC (Maniatis et al., 1982) containing 0.5% SDS (w/v). Membranes were hybridized at 65° C. in 50% formamide, 5×SSC, 0.5% SDS and 10% dextran sulphate. ^32P-labeled RNA probes corresponding to the cDNA fragments of GPx (Criqui et al., 1992), SodCc (PSOD 3-5′ fragment; Tsang et al., 1991), SodB (pSOD 2-5′ fragment; Tsang et al., 1991), Cat1 (pCat1A; Willekens et al., 1994), and N. tabacum actin (pRVA12; Aventis Crop Science, BE) were generated by the Riboprobe® System (Promega Corp., Madison, Wis., USA). RNA probes corresponding to cDNA fragments isolated by differential display and cloned into pGEM®-T vector (Promega Corp., Madison, Wis., USA) were generated according to the same protocol. Membranes were washed at 65° C. for 15 minutes each in 3×SSC (Maniatis et al., 1982), 1×SSC and 0.1×SSC (stringent washing) containing 0.5% SDS (w/v). Membranes were exposed to the Storage Phosphor Screen and scanned with the Phosphorlmager 445 SI (Molecular Dynamics Inc., Sunnyvale, Calif., USA). Membranes were reused after stripping of the probe in 0.1×SSC at 85° C. Removal of the probe was checked by autoradiography.
mRNA levels of several antioxidant genes were tested by Northern analysis during the pretreatment and the treatment. […]

[3] = system: tobacco leaf disc mRNA; assay: Differential mRNA display of MV-pretreated versus water-pretreated leaf discs; set-up: species or system Nicotiana tabacum; conditions: 0.1 μM MV for 17 hours; estimated from sequencing data
Experimental: Total RNA was treated with DNaseI prior to RT-PCR according to the manufacturer's instructions (Life Technologies, Paisley, UK). Alternatively, up to 20 μg of total RNA was incubated with 5 U DNaseI, 18 U Recombinant Ribonuclease Inhibitor (Promega Corp., Madison, Wis., USA), 1 mM DTT in 80 μl of 10 mM Tris-Cl, pH 8.3, 50 mMKCl and 1.5 mM MgCl2 for 30 minutes at 37° C. RNA was extracted with phenol/CHCl3 (3:1), ethanol precipitated and dissolved in diethyl pyrocarbonate-treated water. mRNA differential display was performed with the RNA map™ kit (Gene Hunter Corp., Nashville, Tenn., USA), AmliTaq DNA polymerase (Perkin-Elmer, Branchburg, N.J., USA) and [^33P] dATP (0.2 μl/20 μl PCR reaction of 111 000 GBq/mmol; Isotopchim, Ganagobie-Peyruis, FR). 3.5 μl of each PCR reaction was mixed with 2 μl of loading dye and denatured at 95° C. for five minutes prior to loading onto 6% DNA sequencing gel. […]
In order to identify which genes other than those encoding antioxidant enzymes would show altered mRNA levels during oxidative stress adaptation, reference samples placed in water for 17 hours, or samples pretreated with 0.1 μM MV for 17 hours (adapted leaf discs), were compared by differential mRNA display. […] Expression of 16 genes was further analyzed by Northern analysis with RNA from an independent experiment. […]

[4] = system: A. thaliana plants; assay: Growth of Arabidopsis seedlings on plates containing methyl viologen; assay type: in vivo, Arabidopsis thaliana; conditions: 2 μM MV in ½ MS, 1% sucrose; three to four weeks; transformed lines and C24 control
Experimental: Eighty plants of an F2-progeny of the transgenic line WV4 (construct pWRKY-VP16-pGSJ780A) were grown on MS+Kanamycine for two and a half weeks. Fifteen kanamycine-resistant seedlings were transferred to plates containing ½ MS, 1% sucrose and 2 μM methyl viologen (paraquat) or to plates containing ½ MS, 1% sucrose for the controls.
Wild-type Arabidopsis plants were treated in a similar way (except for selection on Kanamycine).
Performance of plants was followed and pictures were taken after approximately three weeks.
Segregating populations (F2) of A. thaliana plants (C 24) transformed with WRKY11 under control of the 35S promoter (35S—WRKY11) or with WRKY11 fused to the VP16 activation domain under control of the 35S promoter (35S—WRKY11-VP16) were grown on MS media with kanamycine. Approximately three-week-old seedlings resistant to kanamycine from 3:1 segregating lines (WV4 and WV9 WRKY11-VP16 transformed lines) were transferred to the solid media containing ½ MS salts, 1% sucrose and 2 μM methyl viologen (MV) or on plates without MV. As control plants, untransformed A. thaliana plants were used (C24). After three to four weeks, phenotypic differences were assessed.

C[n+]1ccc(-c2cc[n+](C)cc2)cc1 [MV, methyl viologen]
leaf damage measured as solute conductance versus applied dose ([1]; 0.2-2 μM MV): clearly correlated with the applied dose of MV
visible damage of leaf discs ([1]; concentrations lower than 0.2 μM MV, after 42 hours of incubation): no visible damage
increase in ion leakage from the leaf discs in comparison with water-treated controls ([1]; concentrations lower than 0.2 μM MV, up to 42 hours of incubation): very little increase in ion leakage
protection against MV compared to water-pretreated control samples (solute conductance) ([1]; pretreated with 0.1 μM MV for 17 hours, then treated with 1 μM MV for 11 hours, mean): 40%
expression of all Table 2 genes except DIOX ([2]; after 12 hours of the pretreatment with 0.1 μM MV): induced
expression of all Table 2 genes except DIOX ([2]; during the treatment with 1 μM MV, induction started within the first three hours): further induced
Gpx and SodCc mRNA level ([2]; pretreatment with 0.1 μM MV): persistent increase
total number of genes with altered expression after MV pretreatment [3]: ~170
growth of plants on plates containing MV [4]: retarded
